Among the data in US5491167A, “Hexahydronaphthalene ester derivatives, their preparation and their therapeutic uses” (Sankyo Company, Limited, priority 1993, dated 1996) are IC50 values, retold here.

This experiment concerns the target T1, HMG-CoA reductase (Rattus norvegicus, UniProt P51639).
T1 construct: an enzyme solution (rat liver microsomal fraction); from tissue; host or cells: rat liver microsomal fraction
T1 sequence (P51639 1-887): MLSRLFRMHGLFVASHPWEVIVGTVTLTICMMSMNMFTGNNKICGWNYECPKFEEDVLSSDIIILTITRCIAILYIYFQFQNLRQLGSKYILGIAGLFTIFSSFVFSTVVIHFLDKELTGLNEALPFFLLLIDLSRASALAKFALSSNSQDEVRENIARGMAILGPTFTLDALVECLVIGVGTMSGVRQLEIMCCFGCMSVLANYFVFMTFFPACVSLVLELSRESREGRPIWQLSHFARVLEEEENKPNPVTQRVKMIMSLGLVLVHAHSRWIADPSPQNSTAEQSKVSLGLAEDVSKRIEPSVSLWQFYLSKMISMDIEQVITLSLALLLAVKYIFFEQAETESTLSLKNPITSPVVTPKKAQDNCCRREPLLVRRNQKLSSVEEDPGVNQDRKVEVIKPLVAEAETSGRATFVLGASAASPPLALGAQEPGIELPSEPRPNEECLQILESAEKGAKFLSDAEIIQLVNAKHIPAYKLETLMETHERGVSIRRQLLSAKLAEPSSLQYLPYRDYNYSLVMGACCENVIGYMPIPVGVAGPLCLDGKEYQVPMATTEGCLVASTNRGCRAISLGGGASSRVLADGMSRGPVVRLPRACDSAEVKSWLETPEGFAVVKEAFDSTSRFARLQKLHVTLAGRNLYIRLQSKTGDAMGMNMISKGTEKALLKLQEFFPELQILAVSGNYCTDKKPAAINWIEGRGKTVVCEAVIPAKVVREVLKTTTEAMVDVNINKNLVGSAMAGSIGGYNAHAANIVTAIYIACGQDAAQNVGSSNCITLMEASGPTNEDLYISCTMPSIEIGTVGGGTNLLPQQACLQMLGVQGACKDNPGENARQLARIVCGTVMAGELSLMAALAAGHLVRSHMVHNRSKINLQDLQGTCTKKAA
The experiment is described as follows: Determination of HMG-CoA Reductase Inhibitory Activity. Type of experiment: biochemical. To be noted: rat liver microsomal fraction, 0.2 mM [14C]HMG-CoA, pH7.4, 15 minutes at 37° C. Here is the method:
The ability of the preferred test compounds to inhibit the activity of HMG-CoA reductase was determined by the method of Koga et al. [Eur. J. Biochem. 209, 315-319 (1992)], the improved procedure of Kuroda et al. [Biochem. Biophys, Acta, 485, 70-81 (1977)] which a modification of the method of Shapiro et al. [Anal. Biochem. 31, 383-390, (1969)].
A solution of 5 μl of the preferred test compound dissolved in distilled water was added to 45 μl of a reaction mixture containing 100 mM of a potassium phosphate buffer (pH7.4), 0.2 mM of [^14 C]HMG-CoA, 10 mM of ethylenediaminetetraacetic acid disodium salt, 10 mM of dithiothreitol, 10 mM of NADPH (=reduced nicotinamide adenine dinucleotide phosphate) and an enzyme solution (rat liver microsomal fraction). The concentrations are expressed in terms of the final 50 μl of assay mixture. The resulting mixture was incubated for 15 minutes at 37° C. The reaction was then terminated by adding 10 μl of 2N aqueous hydrochloric acid, to lactonize the [^14 C]mevalonate produced. After 15 minutes incubation, 1 ml of a 1:1 by volume aqueous suspension of Biorex-5 was added and the tubes were vigorously mixed using a Vortex mixer. […] The supernatant (400 μl) was mixed with 4.5 ml of Optiflow™ in scintillation vials and the activity of the [^14 C]mevalonolactone was determined by a liquid scintillation counter.
A general note: Liver microsomes are a subcellular fraction often used to study metabolism.

Counter-ions that a name gives are not always drawn.

One may read the IC50 as the midpoint of a concentration-inhibition curve. `CCC(Oc1ccc(C)cc1)C(=O)O[C@H]1C[C@H](O)C=C2C=C[C@H](C)[C@H](CC[C@@H](O)C[C@@H](O)CC(=O)O)[C@H]21` (stereo partly drawn) [Example 3, Sodium Salt of (3R,5R)-3,5-dihydroxy-7-{(1S,2S,6S,8S,8aR)-1,2,6,7,8,8a-hexahydro-6-hydroxy-8-[(2RS)-2-(4-methylphenoxy)butyryloxy]-2-methyl-1-naphthyl}heptanoic acid]: the IC50 was 30.6 nM.

The compound `CCC(Oc1c(C)cccc1C)C(=O)O[C@H]1C[C@H](O)C=C2C=C[C@H](C)[C@H](CC[C@@H](O)C[C@@H](O)CC(=O)O)[C@H]21` (stereo partly drawn) [Example 6, Sodium salt of (3R,5R)-3,5-dihydroxy-7-{(1S,2S,6S,8S,8aR)-1,2,6,7,8,8a-hexahydro-6-hydroxy-8-[(2RS)-2-(2,6-dimethylphenoxy)butyryloxy]-2-methyl-1-naphthyl}heptanoicacid] returned an IC50 of 33.5 nM.
